Here are results for four molecules from patent US20120197004A1, “NOVEL ANTI-MICROBIAL PEPTIDOMIMETIC COMPOUNDS AND METHODS TO CALCULATE ANTI-MICROBIAL ACTIVITY” (priority 2006, published 2012).

Molecules are shown by their SMILES. In brackets after ≈: the same amount, converted by molar mass. Like-named read-outs stand apart in the source and are kept apart here. Where a SMILES comes first, the peptide text is derived from it. [ ]: non-standard residue; d: D form. ξ: configuration not given here. Phe(4-F) = N[C@@H](Cc1ccc(F)cc1)C(=O)O; ξTic = O=C(O)C1Cc2ccccc2CN1; ξOic = O=C(O)C1CC2CCCCC2N1

The nature of series [1]: in vitro. Conditions: dog, microsomes, pH 7.4.
A short description of series [2]: in vitro. As to conditions: rat, microsomes, pH 7.4.
The nature of series [3]: in vitro. As to conditions: monkey, microsomes, pH 7.4.
For the next series, the system named is Bacillus anthracis Ames. Conditions: in vitro MIC.
Series [4] deals with Bacillus subtillis (ATCC 43223). As to conditions: ATCC 43223.
For another series, the system named is F. tularensis SCHU-S4. As to conditions: in vitro MIC.
In series [5] the test system is Mycobacterium ranae (ATCC 110). Conditions: ATCC 110.
The test system of a further series is Plague CO92. Conditions: in vitro MIC.
In series [6] the test system is Staphylococcus aureus Methicillin/Gentamicin/Tetracycline Resistant (ATCC 33592). As to conditions: for MIC Staphylococcus aureus ME/GM/TC resistant: Minimal Inhibitory Concentration, tested at 100-0.1 in 1% DMSO; for Minimum Inhibitory Concentration Staphylococcus aureus ME/GM/TC resistant: in vitro MIC, tested at 100, 30, 10, 3, 1, 0.3 and 0.1 μM in 1% DMSO.
In a further series the test system is B. melitensis 16M. As to conditions: in vitro MIC.
Series [7] is described as follows: in vitro. Conditions: mouse, microsomes, pH 7.4.
Series [8] can be described thus: in vitro. Conditions: human, microsomes, pH 7.4.
Series [9] deals with Salmonella typhimurium (ATCC 13311). Conditions: ATCC 13311.
In series [10] the test system is red blood cells. Conditions: 100 μM.
Series [11] concerns red blood cells. The series can be described thus: Hemolytic studies. As to conditions: concentration not given.

`CC(=O)NCC(=O)N[C@@H](Cc1ccc(F)cc1)C(=O)N1Cc2ccccc2CC1C(=O)N1C(C(=O)NCC(=O)N[C@@H](CCCCN)C(=O)N2Cc3ccccc3CC2C(=O)N2C(C(=O)NCC(=O)N[C@@H](Cc3ccc(F)cc3)C(=O)N3Cc4ccccc4CC3C(=O)N3C(C(=O)NCC(=O)N[C@@H](CCCCN)C(=O)N4Cc5ccccc5CC4C(=O)N[C@@H](CCCCN)C(=O)N[C@@H](CCCCN)C(=O)N[C@@H](CCCCN)C(=O)N[C@@H](CCCCN)C(N)=O)CC4CCCCC43)CC3CCCCC32)CC2CCCCC21` (stereo partly drawn) [FKAB-1Go, Ac-G-Fpa-Tic-Oic-GK-Tic-Oic-G-Fpa-Tic-Oic-GK-Tic-KKKK-CONH2] (Ac-G[Phe(4-F)][ξTic][ξOic]GK[ξTic][ξOic]G[Phe(4-F)][ξTic][ξOic]GK[ξTic]KKKK-NH2): in “in vitro [1]”, the share remaining at 0.5 h, 1 μM is 54% and the share remaining at 1 h, 1 μM is 59%. For the same molecule, in the series “in vitro [2]”, the fraction remaining at 0.25 h, 1 μM was 74%; the amount remaining at 0.5 h, 1 μM came out at 57%; the amount remaining at 1 h, 1 μM was found to be 75%. In “in vitro [3]”, the amount remaining at 0.25 h, 1 μM is 57%; the share remaining at 0.5 h, 1 μM turned out to be 65%; the share remaining at 1 h, 1 μM is 94%. The “Minimum Inhibitory Concentration Bacillus anthracis Ames” value with Bacillus anthracis Ames (listed as 44) was 0.98 µg/mL. In addition, in series [4], the “MIC Bacillus Subtillis” value was 0.30 µM (≈ 0.743 µg/mL) and the “Minimum Inhibitory Concentration Bacillus subtillis” value worked out at 0.3 µM. Moreover, in the series with F. tularensis SCHU-S4, the “Minimum Inhibitory Concentration F. tularensis SCHU-S4” value worked out at 250 µg/mL. Besides, in [5], the “MIC Mycobacterium ranae” value amounted to 3.00 µM (≈ 7.43 µg/mL) and the “Minimum Inhibitory Concentration Mycobacterium ranae” value came out at 3 µM. Besides, the “Minimum Inhibitory Concentration Plague CO92” value with Plague CO92 (listed as 44) came out at 31.25 µg/mL. Also, in series [6], the “MIC Staphylococcus aureus ME/GM/TC resistant” value was determined as 10.00 µM (≈ 24.8 µg/mL) and the “Minimum Inhibitory Concentration Staphylococcus aureus ME/GM/TC resistant” value stood at 10 µM. Besides, the “Minimum Inhibitory Concentration B. melitensis 16M” value in the series with B. melitensis 16M was more than 500 µg/mL. Moreover, in “in vitro [7]”, the share remaining at 0.25 h, 1 μM is 81%; the amount remaining at 0.5 h, 1 μM worked out at 26%; the share remaining at 1 h, 1 μM was found to be 22%. Besides, the amount remaining at 0.25 h, 1 μM in “in vitro [8]” was found to be 103%. Besides, in series [9], the “MIC Salmonella typhimurium” value was determined as 30 µM (≈ 74.3 µg/mL) and the “Minimum Inhibitory Concentration Salmonella typhimurium” value was 30 µM.

Consider `CC(=O)NCC(=O)N[C@@H](Cc1ccccc1)C(=O)N1Cc2ccccc2CC1C(=O)N1C(C(=O)NCC(=O)N[C@@H](CCCCN)C(=O)N2Cc3ccccc3CC2C(=O)N2C(C(=O)NCC(=O)N[C@@H](Cc3ccccc3)C(=O)N3Cc4ccccc4CC3C(=O)N3C(C(=O)NCC(=O)N[C@@H](CCCCN)C(=O)N4Cc5ccccc5CC4C(=O)N[C@@H](CCCCN)C(=O)N[C@@H](CCCCN)C(=O)N[C@@H](CCCCN)C(=O)N[C@@H](CCCCN)C(N)=O)CC4CCCCC43)CC3CCCCC32)CC2CCCCC21` (stereo partly drawn) [FKAB-1G, Ac-GF-Tic-Oic-GK-Tic-Oic-GF-Tic-Oic-GK-Tic-KKKK-CONH2] (Ac-GF[ξTic][ξOic]GK[ξTic][ξOic]GF[ξTic][ξOic]GK[ξTic]KKKK-NH2), for which the amount remaining at 0.5 h, 1 μM was 50% in the series “in vitro [1]”, 79% in “in vitro [2]”, 73% in “in vitro [3]” and 10% in “in vitro [7]”. For the same molecule, the amount remaining at 1 h, 1 μM in the series “in vitro [1]” worked out at 63%; in “in vitro [2]”, 90%; in “in vitro [3]”, 91%; in “in vitro [7]” it was 12%. Further, the figures for the fraction remaining at 0.25 h, 1 μM in “in vitro [2]”, in “in vitro [3]” and in the series “in vitro [7]” were 71%, 55% and 80%, respectively. In addition, the “% hemolysis 100/25 μM (first value)” value with red blood cells [10] is given as 14%. For the same molecule, the “MIC Bacillus Subtillis” value in series [4] was 1.00 µM (≈ 2.44 µg/mL). In addition, the “MIC Mycobacterium ranae” value in series [5] amounted to 10.00 µM (≈ 24.4 µg/mL). Also, in [6], the “MIC Staphylococcus aureus ME/GM/TC resistant” value is 3.00 µM (≈ 7.32 µg/mL). The “Minimum Inhibitory Concentration Staphylococcus aureus ME/GM/TC resistant” value in [6] turned out to be 3 µM. Besides, the “% hemolysis / Hemolytic activity” value with red blood cells [11] and in the series with red blood cells [11] (listed as 25) was 14% in each case. For the same molecule, the “MIC Salmonella typhimurium” value in [9] was 10 µM (≈ 24.4 µg/mL).

Consider `CC(C)C[C@H](NC(=O)[C@@H](N)CCCCN)C(=O)N1Cc2ccccc2CC1C(=O)N1C(C(=O)N[C@@H](CCCCN)C(=O)N2Cc3ccccc3CC2C(=O)N2C(C(=O)N[C@@H](Cc3ccccc3)C(=O)N3Cc4ccccc4CC3C(=O)N3C(C(=O)N[C@@H](CCCCN)C(=O)N4Cc5ccccc5CC4C(=O)N4C(C(=O)N[C@@H](Cc5ccccc5)C(=O)N5Cc6ccccc6CC5C(=O)N5C(C(=O)N[C@@H](CCCCN)C(=O)N6Cc7ccccc7CC6C(=O)N6C(C(=O)N[C@@H](CCCCN)C(=O)N[C@@H](CCCNC(=N)N)C(N)=O)CC7CCCCC76)CC6CCCCC65)CC5CCCCC54)CC4CCCCC43)CC3CCCCC32)CC2CCCCC21` (stereo partly drawn) [FKAB-1F, NH2-KL-Tic-Oic-K-Tic-Oic-F-Tic-Oic-K-Tic-Oic-F-Tic-Oic-K-Tic-Oic-KR-CONH2] (H-KL[ξTic][ξOic]K[ξTic][ξOic]F[ξTic][ξOic]K[ξTic][ξOic]F[ξTic][ξOic]K[ξTic][ξOic]KR-NH2), for which the share remaining at 0.5 h, 1 μM stood at 27% in the series “in vitro [1]”, 120% in the series “in vitro [2]”, 29% in the series “in vitro [3]” and 45% in the series “in vitro [7]”. The amount remaining at 1 h, 1 μM in the series “in vitro [1]” is 8%; in the series “in vitro [3]”, 9%; in the series “in vitro [7]” it was 22%. The figures for the amount remaining at 0.25 h, 1 μM in “in vitro [2]”, in “in vitro [3]” and in the series “in vitro [8]” were 113%, 28% and 99%, respectively. Also, the “% hemolysis 100/25 μM (first value)” value with red blood cells [10] is 63%. Further, the “Minimum Inhibitory Concentration Bacillus anthracis Ames” value in the series with Bacillus anthracis Ames (listed as 24) is 0.98 µg/mL. Besides, in series [4], the “MIC Bacillus Subtillis” value came to 1.00 µM (≈ 3.08 µg/mL). In addition, the “Minimum Inhibitory Concentration F. tularensis SCHU-S4” value in the series with F. tularensis SCHU-S4 is more than 500 µg/mL. Besides, in series [5], the “MIC Mycobacterium ranae” value was 30.00 µM (≈ 92.5 µg/mL). For the same molecule, the “Minimum Inhibitory Concentration Mycobacterium ranae” value in series [5] is 30 µM. Further, in the series on Plague CO92 (listed as 24), the “Minimum Inhibitory Concentration Plague CO92” value was more than 500 µg/mL. The “MIC Staphylococcus aureus ME/GM/TC resistant” value in series [6] was 10.00 µM (≈ 30.8 µg/mL). In addition, the “Minimum Inhibitory Concentration Staphylococcus aureus ME/GM/TC resistant” value in series [6] is 10 µM. For the same molecule, in the series with B. melitensis 16M, the “Minimum Inhibitory Concentration B. melitensis 16M” value is more than 500 µg/mL.

As for `CC(=O)NCC(=O)N[C@@H](Cc1ccccc1)C(=O)N1Cc2ccccc2CC1C(=O)N1C(C(=O)NCC(=O)N[C@@H](Cc2c[nH]c3ccccc23)C(=O)N2Cc3ccccc3CC2C(=O)N2C(C(=O)NCC(=O)N[C@@H](Cc3ccccc3)C(=O)N3Cc4ccccc4CC3C(=O)N3C(C(=O)NCC(=O)N[C@@H](Cc4c[nH]c5ccccc45)C(=O)N4Cc5ccccc5CC4C(=O)N[C@@H](CCCCN)C(=O)N[C@@H](CCCCN)C(=O)N[C@@H](CCCCN)C(=O)N[C@@H](CCCCN)C(N)=O)CC4CCCCC43)CC3CCCCC32)CC2CCCCC21` (stereo partly drawn) [FKAB-1G-Trp, Ac-GF-Tic-Oic-GW-Tic-Oic-GF-Tic-Oic-GW-Tic-KKKK-CONH2] (Ac-GF[ξTic][ξOic]GW[ξTic][ξOic]GF[ξTic][ξOic]GW[ξTic]KKKK-NH2), the amount remaining at 0.5 h, 1 μM in the series “in vitro [1]” stood at 116%; in “in vitro [2]”, 84%; in the series “in vitro [3]” it was 0%; in “in vitro [7]” it was 81%. Further, the values for the share remaining at 1 h, 1 μM in “in vitro [2]”, in “in vitro [3]” and in the series “in vitro [7]” were 0%, 0% and 106%, respectively. In addition, the amount remaining at 0.25 h, 1 μM in “in vitro [3]” is 0%; in “in vitro [7]”, 54%; in “in vitro [8]”, 112%. Also, in the series on Bacillus anthracis Ames (listed as 57), the “Minimum Inhibitory Concentration Bacillus anthracis Ames” value came to 0.98 µg/mL. For the same molecule, the “Minimum Inhibitory Concentration F. tularensis SCHU-S4” value with F. tularensis SCHU-S4 was more than 500 µg/mL. Moreover, in series [5], the “Minimum Inhibitory Concentration Mycobacterium ranae” value came out at 100 µM. In addition, the “Minimum Inhibitory Concentration Plague CO92” value in the series on Plague CO92 (listed as 57) is more than 500 µg/mL. The “Minimum Inhibitory Concentration Staphylococcus aureus ME/GM/TC resistant” value in series [6] is 30 µM. For the same molecule, the “Minimum Inhibitory Concentration B. melitensis 16M” value in the series on B. melitensis 16M is more than 500 µg/mL.
